Consider one compound from patent US20230241000A1, “GSK3 INHIBITOR-LOADED NANO FORMULATIONS AS A CANCER IMMUNOTHERAPEUTIC” (The Regents of the University of California, priority 2020, published 2023).

The conditions of series [1]: humans; literature (15); cited from earlier work.
Series [2] is described as follows: Maximum tolerated dose study of free AZD1080. The class given is in vivo. As to conditions: one-time tail vein injection, 5 to 25.3 mg/kg, weights recorded 14 days; listed as free AZD1080. The method, then:
Dotted lines represent thresholds for toxicity (−15%) and weight loss requiring euthanasia (20%). Body weight changes are relative to individual mouse initial weights. N=4 mice per group, error bars are SEM.
In order to establish a safe working concentration for murine experiments on AZD1080, we used a previously established dose of 5 mg/kg for the treatment of an Alzheimer's-like disease process in rats (29) for planning of a maximum tolerated dose assessment (FIG. 14). […] This prompted us to continue the use of the established dose of 5 mg/kg, for a total of three injections in our animal studies.
The maximum tolerated dose of AZD1080 was determined using a protocol from the National Cancer Institute (72). C57BL/6 mice were injected with AZD1080 solutions via tail vein (100 μL) and weights were recorded daily for 14 days. AZD1080 was solubilized in 30% PEG400, 0.5% Tween-80, 5% polyethylene, and 64.5% 1×PBS. The injected amounts of AZD1080 were 5, 7.5, 11.25, 16.87, or 25.31 mg/kg per mouse, n=4 mice per group.

Series [3] in a line: Safety analysis in MC38 mice (animal weight, blood chemistry, organ H&E histology). The format is in vivo, C57BL/6 mice. As to conditions: serum at sacrifice. The method, then: While there is sparse literature on the use of AZD1080 in animal studies, this agent had to be discontinued in a phase I clinical trial in humans due to nephrotoxicity (15).
The histology preparation and staining of tumor tissue and mouse organs was performed in the Pathology Core Facility of the UCLA Jonsson Comprehensive Cancer Center. Tissues were fixed in 10% neutral-buffered formalin for 24 hours, then gradually dehydrated in 25-75% ethanol solutions over 3 days. Tissues were embedded in paraffin, sectioned at 4 μm thickness, and stained by anti-CD8, anti-cleaved caspase 3, anti-perforin, anti-PD-1, or haemotoxylin and eosin (H&E). Slides were digitally scanned for analysis using Aperio ImageScope software (Leica Biosystems, Buffalo Grove, Ill.). Four fields of view were analyzed per tumor at 20× magnification, with all positively stained cells counted within the field and averaged across fields. The investigator was blinded with respect to the animal groups to avoid bias during counting. Fields of view were chosen to avoid the tumor periphery and processing artifacts.
At the time of sacrifice, blood was obtained by cardiac puncture from MC38 tumor growing animals and collected into Greiner Bio-One MiniCollect Capillary Blood collection system tubes. Tubes were centrifuged as per manufacturer's instructions to separate serum from blood cells. The serum was frozen at […] and subsequently used, to obtain a comprehensive serum chemistry panel, develop by IDEXX Laboratories (Westbrook, Me.), for use in the UCLA Division of Laboratory Animal Medicine (DLAM).

The next series deals with Pdcd1 expression. In words: RT-qPCR of Pdcd1 in anti-CD3 activated primary murine T-cells. The class given is cell-based, C57BL/6 mouse. As to conditions: 10 μM, 72 hours, normalized against Gapdh. The method, then: This is compatible with the translational expression of T-bet, a transcription factor that interferes in PD-1 expression (FIG. 1, panel B).
Wells of a 96-well tissue culture plate were coated with anti-mouse CD3 antibody (Ultra-LEAF, Biolegend). 7.5 μL of 1 mg/mL antibody solution was diluted in 1 mL of 1×PBS, before 50 μL of the dilution was added to each plate well for 2 hours at 37° C. The wells were then thoroughly washed 3× with 1×PBS.
T-cells were extracted from C57BL/6 mouse spleens, using a standard procedure with minor modifications (71). Two mouse spleens were mechanically disrupted and the released cells were passed through a 70 μm filter. Red blood cells were lysed using RBC lysis buffer (eBioscience) at 4° C. for 5 minutes. 10 mL of 1×PBS was added to stop the lysis process, following which cells were pelleted at 300×g for 5 minutes. […]
Cells were collected and RNA was extracted using Direct-zol RNA MiniPrep Plus kits (Zymo), as per the manufacturer's instructions. Extracted RNA was converted into cDNA using SuperScript III First-Strand Synthesis System kits (Invitrogen). cDNA from treated T-cells was analyzed by RT-PCR using a LightCycler 480 instrument (Roche) and the LightCycler 480 SYBR Green I Master kit (Roche), per manufacturer's instructions. cDNA was analyzed using forward and reverse primers for Pdcd1, Tbx21, and Gapdh as a control, as described previously (10, 14). […]
(In general: Quantitative PCR measures a nucleic acid by following its amplification.)

In the case of `N#Cc1ccc2[nH]c(O)c(-c3ccc(CN4CCOCC4)cn3)c2c1` [AZD1080], in series [1], the “toxicity leading to discontinuation in phase I clinical trial” value is on record as “nephrotoxicity”. Moreover, in series [2], the “tolerability on dose escalation (weight loss, behavior, mortality, adverse events)” value is “devoid of significant weight loss, abnormal behavior or posture, mortality or other adverse events”. Also, in series [3], the “albumin:globulin ratio” value is listed as “depress”; the “blood chemistry panel (overall)” value is on record as “more variation in blood chemistry”; the “total bilirubin and BUN levels” value is given as “reductions”. In the series with Pdcd1 expression, the “reduction in Pdcd1 mRNA expression” value was approximately 6 fold.
